In ChEMBL document CHEMBL1154502, “Small, non-peptide C5a receptor antagonists: part 2” (Bioorg Med Chem Lett, 2008):

Tests used:
[1] = target: T1, C5a anaphylatoxin chemotactic receptor 1 (Homo sapiens, UniProt P21730); assay: Displacement of [125I]C5a from C5a receptor in cAMP differentiated human U937 cells by filtration assay; format: cell-based, U-937
T1 sequence (P21730 whole entry): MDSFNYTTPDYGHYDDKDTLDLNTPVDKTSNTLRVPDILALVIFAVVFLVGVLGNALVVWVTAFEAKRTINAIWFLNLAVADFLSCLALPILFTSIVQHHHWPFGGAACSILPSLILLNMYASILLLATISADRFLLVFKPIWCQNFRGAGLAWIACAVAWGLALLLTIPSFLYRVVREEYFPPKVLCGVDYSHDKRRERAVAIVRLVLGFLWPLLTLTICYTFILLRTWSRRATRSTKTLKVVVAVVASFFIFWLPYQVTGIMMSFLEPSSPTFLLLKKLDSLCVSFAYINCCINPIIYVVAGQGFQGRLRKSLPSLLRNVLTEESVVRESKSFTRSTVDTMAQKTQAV

[2] = target: T1, C5a anaphylatoxin chemotactic receptor 1; assay: Antagonist activity at C5a receptor assessed as inhibition of C5a-induced elastase release in human neutrophils during degranulation preincubated 5 mins prior to C5a challenge using p-nitroanilide as substrate; format: functional
[3] = Octanol-neutral buffer distribution coefficient, log D at pH 7.4; format: physicochemical
[4] = Dissociation constant, pKa of the compound; format: physicochemical
[5] = Protein binding in human plasma; format: ADME, cell-free; settings: read-out: PPB (converted)
[6] = target: T2, C5a anaphylatoxin chemotactic receptor 1 (Homo sapiens) (UniProt P21730); assay: Antagonist activity at C5a receptor assessed as total drug level required to induce 10-fold shift in C5a-stimulated CD11b upregulation in heparinised human whole blood preincubated 1 min prior to C5a challenge by dose-response curve analysis; format: functional, tissue-based
T2 sequence (whole entry): T1 sequence (P21730 whole entry)

[7] = target: T2, C5a anaphylatoxin chemotactic receptor 1 (Homo sapiens); assay: Antagonist activity at C5a receptor assessed as free drug level required to induce 10-fold shift in C5a-stimulated CD11b upregulation in heparinised human whole blood preincubated 1 min prior to C5a challenge by dose-response curve analysis; format: functional, tissue-based
[8] = Lipophilicity, log D of the compound; format: physicochemical; settings: octanol/water
[9] = target: T2, C5a anaphylatoxin chemotactic receptor 1 (Homo sapiens); assay: Binding affinity to C5a receptor assessed as total drug level required for translation of C5a-induced CD11b upregulation in heparinised human whole blood preincubated 1 min prior to C5a challenge by dose-response curve analysis; format: tissue-based
[10] = target: T2, C5a anaphylatoxin chemotactic receptor 1 (Homo sapiens); assay: Binding affinity to C5a receptor assessed as free drug level required for translation of C5a-induced CD11b upregulation in heparinised human whole blood preincubated 1 min prior to C5a challenge by dose-response curve analysis; format: tissue-based

logD [3]	Structure (SMILES)	IC50 [1] [µM]	IC50 [2] [µM]	further results
	COCC(Cc1ccc(Cl)cc1)N(C(=O)c1csc2ccccc12)C1CCC2(CC1)OCCO2 (racemic)	0.012	0.027	
4.6	CN(C)CC(Cc1ccc(Cl)cc1)N(C(=O)c1cccc2ccccc12)C1CCC2(CC1)OCCO2 (racemic)	0.013	0.022	
4.6	Cc1nc(-c2csc3ccccc23)n(C2CCC3(CC2)OCCO3)c1Cc1ccc(Cl)cc1	0.09		
3.3	CN(C)Cc1ccccc1C(=O)N(CCc1ccc(Cl)cc1)C1CCC2(CC1)OCCO2	0.5		pKa [4]: 8.4; fraction unbound [5]: 0.004; Activity [6]: > 10 µM; Activity [7]: > 40 nM
	c1ccc2c(-c3ncc(CC4CCCCC4)n3C3CCC4(CC3)OCCO4)csc2c1	0.047	0.85	
	O=C(c1csc2ccccc12)N(C1CCC2(CC1)OCCO2)C(CO)Cc1ccc(Cl)cc1 (racemic)	> 1		
	O=C(Nc1ccc(F)cc1F)N1CCC(N(CCc2ccc(Cl)cc2)C(=O)c2csc3ccccc23)CC1			logD [8]: < 4
	Clc1ccc(Cc2cnc(-c3cccc4ccccc34)n2C2CCC3(CC2)OCCO3)cc1	0.09	0.877	
> 4	Clc1ccc(Cc2cnc(-c3csc4ccccc34)n2C2CCC3(CC2)OCCO3)cc1	0.5		
	CC(=O)C(Cc1ccc(Cl)cc1)N(C(=O)c1csc2ccccc12)C1CCC2(CC1)OCCO2 (racemic)	0.045		
	Clc1cccc2nc(-c3csc4ccccc34)n(C3CCC4(CC3)OCCO4)c12	0.325		
4	COc1cccc(-c2ncc(Cc3ccc(Cl)cc3)n2C2CCC3(CC2)OCCO3)c1	> 1		
	CCc1ccccc1C(=O)N(C1CCC2(CC1)OCCO2)[C@H](CCN(C)C)Cc1ccc(Cl)cc1	> 1		
> 5	CCc1ccccc1C(=O)N(C1CCC2(CC1)OCCO2)C(Cc1ccc(Cl)cc1)CN(C)C (racemic)	0.027	0.025	pKa [4]: 7.4; fraction unbound [5]: 0.004; Activity [6]: 4.8 µM; Activity [7]: 17 nM; Activity [9]: 178 nM; Activity [10]: 0.63 nM
> 5	Clc1ccc2nc(-c3csc4ccccc34)n(C3CCC4(CC3)OCCO4)c2c1Cl	0.79		
	CCOC(=O)C(Cc1ccc(Cl)cc1)N(C(=O)c1cccc2ccccc12)C1CCC2(CC1)OCCO2 (racemic)	0.003	0.032	
	COC(=O)C(Cc1ccc(Cl)cc1)N(C(=O)c1csc2ccccc12)C1CCC2(CC1)OCCO2 (racemic)	0.015	0.172	
	Clc1ccc(CC2CN=C(c3csc4ccccc34)N2C2CCC3(CC2)OCCO3)cc1 (centres undefined)	> 1		
3.4	CCc1ccccc1C(=O)N(C1CCC2(CC1)OCCO2)[C@H](CCN1CCOCC1)Cc1ccc(Cl)cc1	0.2		fraction unbound [5]: 0.027; Activity [6]: 4.4 µM; Activity [7]: 119 nM; Activity [9]: 22 nM; Activity [10]: 0.6 nM
> 5	CCc1ccccc1C(=O)N(C1CCC2(CC1)OCCO2)C(Cc1ccc(Cl)cc1)c1noc(C)n1 (racemic)	0.008	0.04	
	Clc1ccc(Cc2nnc(-c3cccc4ccccc34)n2C2CCC3(CC2)OCCO3)cc1	> 1		
	CCc1ccccc1C(=O)N(C1CCC2(CC1)OCCO2)C(Cc1ccc(Cl)cc1)C(=O)O (racemic)	0.35		
